# Data reported in patent publication US20030203000A1, “Modulation of therapeutic agent release from a polymeric carrier using solvent-based techniques” (priority 2002, published 2003).
# Assay: paclitaxel release profile from block-copolymer-coated stents in PBS with 0.5% Tween 20
# Type: physicochemical
# Details: release in PBS with 0.5% Tween 20, FIG. 1
# From the text: A solution is provided that contains the following: 99 wt % solvent system, 0.25 wt % paclitaxel and 0.75 wt % block copolymer. The copolymer is synthesized using known techniques such as those described in U.S. Pat. No. 5,741,331, U.S. Pat. No. 4,946,899 and U.S. Ser. No. 09/734,639. The solvent system consists of tetrahydrofuran (THF) and toluene, which are provided in varying ratios in this example. The solution is provided by (1) mixing the paclitaxel and tetrahydrofuran, (2) adding the copolymer, (3) adding the toluene, (4) thoroughly mixing (e.g., overnight), and (5) filtering.
# The solution is then placed in a syringe pump and fed to a spray nozzle. A stent is mounted onto a holding device parallel to the nozzle and, if desired, rotated to ensure uniform coverage. Depending on the spray equipment used, either the component or spray nozzle can be moved while spraying such that the nozzle moves along the component while spraying for one or more passes.
# After a coating is formed in this fashion, it is dried, for example, by placing it in a preheated oven for 30 minutes at 65° C., followed by 3 hours at 70° C.
# Three coated stents are formed in this manner using (in addition to 0.25 wt % paclitaxel and 0.75 wt % block copolymer) the following solvent species in the following relative amounts: (T) 99 wt % THF, (2) 75 wt % THF, 24 wt % toluene, (3) 50 wt % THF, 49 wt % toluene, (4) 25 wt % THF, 74 wt % toluene, (5) 5 wt % THF, 94 wt % toluene. Release rate as a function of time and cumulative release as a function of time (referred to herein as the “release profile”) were then measured in PBS with 0.5% Tweeng 20 (polyoxyethylene(20) sorbitan monolaurate) available from Sigma-Aldrich. The results are graphically illustrated in FIG. 1.
compound,measurement,setting,value
CC(=O)O[C@H]1C(=O)[C@@]2(C)[C@H]([C@H](OC(=O)c3ccccc3)[C@]3(O)C[C@H](OC(=O)[C@H](O)[C@@H](NC(=O)c4ccccc4)c4ccccc4)C(C)=C1C3(C)C)[C@]1(OC(C)=O)CO[C@@H]1C[C@@H]2O [paclitaxel],paclitaxel release (release profile),coating formed from higher THF-to-toluene ratios in the solvent system,more accelerated paclitaxel release
same,paclitaxel release (release profile),coating formed from lower THF-to-toluene ratios in the solvent system,more extended paclitaxel release
same,paclitaxel release (release rate and cumulative release as a function of time),"stent coating of 0.25 wt % paclitaxel and 0.75 wt % block copolymer, THF solvent system with toluene added",reduced by the addition of toluene
